Measurements reported in paper PMC11237012, “Synthesis and preliminary evaluation of novel PET probes for GSK-3 imaging” (Scientific Reports, 2024).

Test: Radiochemical stability in mouse serum (rad-TLC)
Type: in vitro ADME
Conditions: 37 °C
Description: The stability of PET probes [^18F]2 and [^18F]6 was measured in isotonic NaCl solution (0.9% NaCl) and mouse and human serums at 37 °C for up to 120 min by rad-TLC at 0 min, 30 min, 60 min and 120 min post incubation. The results obtained are presented in Fig. 5 and SI-Figs. S10–S15, SI-Table S1. […] The plausible explanation of the instability of [^18F]6 could be attributed to the covalent interaction of [^18F]6’s SO2F group with primary amines of amino acid residues present in the protein rich mouse and human serums. In fact, in an unrelated study, Zhao et al. reported formation of sulfonamide bond between sulfuryl fluoride and primary amine of conserved lysine residues of different kinases. […] Based on 2’s favorable blood–brain barrier permeability, nanomolar binding affinity and PET probe [^18F]2’s excellent stability in both mouse and human serums, further in vivo evaluations were performed only with PET probe [^18F]2.
Stability of [^18F]2 and [^18F]6 was assessed in isotonic NaCl solution and human and mouse serums. To perform this stability assay, 100 µL of [^18F]2 (~ 37.0 MBq) or 100 µL of [^18F]6 (~ 37.0 MBq) as in final formulation was added to 100 µL of human serum or mouse serum in a microcentrifuge tube. The resultant mixture was incubated at 37 °C for 120 min. To assess the radiochemical stability of the probes, a small aliquot (~ 0.5 µL) was taken out from the mixture in triplicate at 0 min, 30 min, 60 min and 120 min during incubation, and analyzed on a rad-TLC using 0.5:9.5 methanol: chloroform as a mobile phase using i-TLC to estimate the stability of [^18F]2 or [^18F]6 at different time points post-incubation. After Stability preparative processes initial i-TLC development was considered as 0 min.

- Percentage of intact probe (0 min): 100 ± 0.0%
- Percentage of intact probe (30 min): 100 ± 0.0%
- Percentage of intact probe (60 min): 100 ± 0.0%
SMILES: O=C(Nc1cnccc1-c1ccc([18F])cc1)c1ccnc(NC(=O)C2CC2)c1 [[^18F]2]
